The values below come from patent US12310946B2, “Pharmaceutical composition for oral administration of edaravone and method of administering same” (MITSUBISHI TANABE PHARMA CORPORATION, priority 2020, dated 2025).

A short description of series [1]: Clinical study #4: PK of edaravone oral formulation (formula #2), high-fat meal 1 hour after administration vs fasted. In kind it is in vivo, human. Particulars: 100 mg oral; for partial AUC / AUC(0-inf) / Cmax / Tmax / half-life: male, human, plasma, po, 100 mg; for AUC(0-inf) / Cmax / Tmax / half-life: mean (n = 9). The protocol:
Effects of meal consumption 1 hour after administration of the edaravone oral formulation on the pharmacokinetics of edaravone were evaluated. Specifically, a clinical study #4 described below was conducted on the same subjects in Japanese healthy adult male subjects. In the clinical study #4, the edaravone oral formulation of the formula #2 in Table 1 above was used and administered orally once during the study period. In addition, the same high-fat meal as that used in Example 1 above was used.
As a post-administration consumption group, the same subjects in fasted conditions after a lapse of 10 hours or longer from meal consumption were orally administered with the edaravone oral formulation, and the high-fat meal was consumed 1 hour after the administration. Blood samples were each collected before the administration, and 5 minutes, 15 minutes, 30 minutes, 1 hour, 1.5 hours, 2 hours, 4 hours, 6 hours, 8 hours, 12 hours, 24 hours, 36 hours, and 48 hours after the administration, and the concentrations of unchanged edaravone in plasma were measured. The consumption of the high-fat meal 1 hour after the administration was carried out after the blood sample collection 1 hour after the administration, and a subsequent meal was not consumed until the blood sample collection 4 hours after the administration was completed. On the other hand, as a fasted group for reference, the edaravone oral formulation was administered orally to the same subjects in fasted conditions, blood samples were collected, and the concentrations of unchanged edaravone in plasma were measured in the same manner.
In addition, the AUC0-∞ after the administration of the edaravone oral formulation was evaluated separately on the results from 0 hour to 1 hour after the administration (0 to 1 h, before the consumption of a meal resumed after the administration) (AUC0-1h) and the results 1 hour after the administration (1 h to ∞ h, after the consumption of a meal resumed after the administration) (AUC1h-∞) for the post-administration consumption group (1 h before high-fat meal) and the fasted group (Fasted).

A short description of series [2]: Oxidation of edaravone depending on pH. In kind it is physicochemical. Particulars: dependence on pH.
Series [3] is described as follows: Solubility of edaravone in water and BCS classification. The series is classed as physicochemical. The protocol:
Since 1 g of edaravone requires 500 mL of water to dissolve, 105 mg of edaravone is calculated to require 52.5 mL of water. […] Thus, edaravone is regarded as a BCS Class 1 drug with high solubility and high permeability. These findings led to a brief that edaravone is a compound whose pharmacokinetics are not affected by meal consumption. […] Not only the presence or absence of a meal but also the types of meal cause differences in effects on the pharmacokinetics of edaravone, and suitable administration timing depends on each type of meal.

[4] abbreviates: 1 h before high-fat meal vs fasted.
The mark [5] stands for this setting: high-fat meal 1 hour after administration vs fasted.
[6] abbreviates: formula #2, 1 h before high-fat meal.

Each structure is given as a SMILES string. Read-outs that look alike come from different tables or passages of the source.

For `CC1=NN(c2ccccc2)C(=O)C1` [Edaravone, 3-methyl-1-phenyl-2-pyrazolin-5-one], in series [1] (setting [4]), the “change in the AUC0-1h in comparison with fasted” value is recorded as “slight decrease”, the “change in the AUC1h-∞ in comparison with fasted” value is “no change”, the “change in the AUC in comparison with fasted” value was “→” and the “change in the Cmax in comparison with fasted” value is recorded as “→”. Moreover, in series [1] (setting [5]), the “decrease in the AUC in comparison with the fasted group” value is “about 10.4%” and the “decrease in the Cmax in comparison with the fasted group” value is reported as “about 17.0%”. In series [1] (1 h before high-fat meal (n = 9), read-out: AUC0-1h), the partial AUC came out at 772 ± 519 ng·h/mL. In addition, the partial AUC in series [1] (1 h before high-fat meal (n = 9), read-out: AUC1h-∞) amounted to 703 ± 202 ng·h/mL. Also, the partial AUC in series [1] (fasted (n = 9), read-out: AUC0-1h) is 890 ± 349 ng·h/mL. Further, the partial AUC in series [1] (fasted (n = 9), read-out: AUC1h-∞) stood at 756 ± 232 ng·h/mL. Moreover, in series [1] (setting [6]), the AUC(0-inf) came to 1480 ng·h/mL, the concentration peaked (Cmax) at 1500 ng/mL, the Tmax is 0.6 h and the half-life was 9.65 h. Besides, in series [1] (formula #2, fasted), the area under the curve AUC(0-inf) was 1650 ng·h/mL, the peak concentration (Cmax) is 1810 ng/mL, the Tmax worked out at 0.36 h and the half-life is 9.33 h. Besides, in series [2], the oxidation of edaravone entry is “accelerated at a pH of 2.5 or lower and at a pH of 6.0 or higher”. Moreover, in series [3] (105 mg of edaravone, calculated), the “water required to dissolve 105 mg of edaravone” value is 52.5 mL. In addition, the “water required to dissolve 1 g of edaravone” value in series [3] (1 g of edaravone) is 500 mL. Moreover, the solubility classification result in series [3] (Biopharmaceutics Classification System) was “high solubility compound”. Also, in series [3] (for example, water, read-out: saturation solubility of edaravone with respect to a dispersion medium), the solubility was ≤ 2000 µg/mL. Also, in series [3] (solubility and Caco-2 permeability), the BCS class entry was “BCS Class 1”.

A word on the AUC(0-inf): it is total exposure, with the tail of the curve extrapolated. Read a low AUC(0-inf) as less exposure. As a reminder, the Cmax is the highest concentration seen after dosing. By Tmax is commonly meant the time from dosing to the highest level. By half-life is commonly meant the time in which the quantity being followed falls by half. Higher therefore signals slow loss.
